biological target: T1, ABCC11 (Homo sapiens, UniProt Q96J66); experiment: cell-based; conditions: read-out: ABCC11-Mediated DHEA-S Transport (% of Control)
T1 construct: full-length human ABCC11 WT
T1 sequence (Q96J66 whole entry): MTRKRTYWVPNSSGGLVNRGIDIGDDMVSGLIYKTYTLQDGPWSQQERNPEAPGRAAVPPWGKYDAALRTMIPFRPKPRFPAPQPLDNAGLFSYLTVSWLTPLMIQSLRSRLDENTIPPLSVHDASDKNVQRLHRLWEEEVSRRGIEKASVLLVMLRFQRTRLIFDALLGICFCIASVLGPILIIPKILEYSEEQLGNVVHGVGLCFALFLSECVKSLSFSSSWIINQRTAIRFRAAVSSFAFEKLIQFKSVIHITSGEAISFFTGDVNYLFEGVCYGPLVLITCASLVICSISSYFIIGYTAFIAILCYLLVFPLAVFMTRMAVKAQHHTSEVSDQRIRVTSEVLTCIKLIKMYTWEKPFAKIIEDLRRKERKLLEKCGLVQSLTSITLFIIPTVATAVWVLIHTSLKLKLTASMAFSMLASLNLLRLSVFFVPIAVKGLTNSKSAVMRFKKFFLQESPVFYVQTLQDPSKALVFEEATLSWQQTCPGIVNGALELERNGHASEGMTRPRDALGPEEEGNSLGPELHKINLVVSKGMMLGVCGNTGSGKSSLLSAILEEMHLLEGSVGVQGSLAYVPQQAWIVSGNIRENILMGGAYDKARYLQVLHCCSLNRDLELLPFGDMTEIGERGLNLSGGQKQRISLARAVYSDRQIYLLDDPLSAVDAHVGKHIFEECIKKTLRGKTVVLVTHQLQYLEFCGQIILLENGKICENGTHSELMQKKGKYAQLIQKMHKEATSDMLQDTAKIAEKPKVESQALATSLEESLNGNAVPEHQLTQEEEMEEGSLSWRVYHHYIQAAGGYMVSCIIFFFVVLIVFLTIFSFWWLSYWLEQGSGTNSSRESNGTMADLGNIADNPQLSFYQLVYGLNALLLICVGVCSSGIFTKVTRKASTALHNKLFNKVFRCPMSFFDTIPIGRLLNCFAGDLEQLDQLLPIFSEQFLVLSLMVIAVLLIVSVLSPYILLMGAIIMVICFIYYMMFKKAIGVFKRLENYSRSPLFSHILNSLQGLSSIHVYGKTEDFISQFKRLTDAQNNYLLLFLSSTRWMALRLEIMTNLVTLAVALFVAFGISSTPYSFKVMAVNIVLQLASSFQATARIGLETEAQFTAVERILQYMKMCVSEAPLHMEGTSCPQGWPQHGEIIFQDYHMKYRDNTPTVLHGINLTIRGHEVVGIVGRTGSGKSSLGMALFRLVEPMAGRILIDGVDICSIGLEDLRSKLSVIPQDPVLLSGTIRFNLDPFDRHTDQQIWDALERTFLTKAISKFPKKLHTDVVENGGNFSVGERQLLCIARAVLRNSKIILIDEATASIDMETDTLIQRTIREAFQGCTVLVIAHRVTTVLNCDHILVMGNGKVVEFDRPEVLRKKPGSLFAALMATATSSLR

Compound	remaining activity at 100 µM [%]
O=c1cc(-c2ccc(O)c(O)c2)oc2cc(O)cc(O)c12 [compound 4, luteolin]	0
COc1ccc(-c2cc(=O)c3c(OC)c(OC)c(OC)c(OC)c3o2)cc1OC [compound 5, nobiletin]	0
O=c1c(O)c(-c2ccc(O)c(O)c2)oc2cc(O)c(O)c(O)c12 [compound 16, quercetagetin]	0
O=C(/C=C/c1ccc(O)cc1)c1c(O)cc(O)cc1O [compound 19, naringenin chalcone]	12.4 ± 4.2
O=C(CCc1ccc(O)cc1)c1c(O)cc(O)cc1O [compound 20, phloretin]	0.6 ± 3.9
O=C(O[C@@H]1Cc2c(O)cc(O)cc2O[C@H]1c1ccc(O)c(O)c1)c1cc(O)c(O)c(O)c1 [compound 23, (−)-catechin gallate]	10.5 ± 6

biological target: T1, ABCC11; experiment: inhibition of ATP-dependent [3H]-DHEA-S transport in plasma membrane vesicles from ABCC11-expressing […] cells; type: biochemical; conditions: not given

IC50 [µM]	Compound
61.5	O=c1c(-c2ccc(O)cc2)coc2cc(O)cc(O)c12 [genistein]

biological target: T1, ABCC11; experiment: biochemical; set-up: Vesicle transport assay: ATP-dependent uptake of radiolabeled DHEA-S into ABCC11-expressing membrane vesicles, rapid filtration, scintillation counting; conditions: ABCC11-mediated DHEA-S transport, % of control, 5 min, 37 °C
Excerpt: The inhibitory effects of the various target extracts and compounds on the ABCC11 function were examined using the in vitro vesicle transport assay, a well-established method to quantitatively evaluate ABC transporter function. For this purpose, the ATP-dependent transport of [1,2,6,7-^3H(N)]-dehydroepiandrosterone sulfate (DHEA-S) (PerkinElmer, Waltham, MA, USA), which is an ABCC11 substrate, into the ABCC11-expressing and control plasma membrane vesicles was quantified following our previous study with some minor modifications in the rapid filtration technique, as described below. In brief, the plasma membrane vesicles (0.25 mg/mL or indicated concentrations) were incubated with [1,2,6,7-^3H(N)]-DHEA-S (100 nM or indicated concentrations) in a reaction mixture (total 20 μL: 10 mM Tris/HCl, 250 mM sucrose, 10 mM MgCl2, 10 mM creatine phosphate, 1 mg/mL creatine phosphokinase, 50 mM ATP or AMP as a substitute of ATP, and pH 7.4) for 5 min at 37 °C, either without (i.e., with only vehicle control) or with the individual target fractions/authentic chemicals at the indicated concentrations. As the vehicle control, 1% water was used for plant extracts; 1% methanol (Nacalai Tesque) or 1% dimethyl sulfoxide (DMSO; Nacalai Tesque) was used for the individual target fractions, as described below. Since stock solutions of authentic chemicals were prepared with DMSO at 10 mM, 1% DMSO was employed as the vehicle control for them. After incubation, the reaction mixture was mixed with 980 μL of an ice-cold stop buffer (2 mM EDTA, 0.25 M sucrose, 0.1 M NaCl, 10 mM Tris-HCl, and pH 7.4) and rapidly filtered on a membrane filter (MF-Millipore Membrane (HAWP02500; Millipore, Tokyo, Japan) for extract screening or Whatman™ Grade GF/F Glass Microfiber Filter Paper (GE Healthcare) for the other experiments). After washing with 5 mL of the ice-cold stop buffer three times, the plasma membrane vesicles trapped on the membrane filter were dissolved in Clear-sol II (Nacalai Tesque). Then, the radioactivity incorporated into the plasma membrane vesicles was measured with a liquid scintillator (Tri-Carb 3110TR; PerkinElmer). The transport activity in each group was calculated as the incorporated clearance (μL/mg protein/min = incorporated level of DHEA-S (disintegrations per minute (DPM)/mg protein/min)/DHEA-S level in the incubation mixture (DPM/μL)). ATP-dependent DHEA-S transport was calculated by the difference in transport activity with and without ATP. Similarly, ABCC11-mediated DHEA-S transport activity was calculated by subtracting the ATP-dependent DHEA-S transport activity of control plasma membrane vesicles from that of ABCC11-expressing ones. Unless otherwise indicated, effects of the target fractions/compounds on the ATP-dependent DHEA-S transport activity were also examined for the control plasma membrane vesicles.

remaining activity at 100 µM [%]	Compound
91.9 ± 5.9	Oc1cc(O)c2c(c1)O[C@H](c1ccc(O)c(O)c1)[C@@H](O)C2 [(+)-Catechin]
85.2 ± 24.4	Oc1cc(O)c2c(c1)O[C@H](c1ccc(O)c(O)c1)[C@H](O)C2 [(−)-Epicatechin]
25.3 ± 12.5	O=c1cc(-c2ccc(O)cc2)oc2cc(O)cc(O)c12 [Apigenin]
73.4 ± 10.8	COc1cc(O)cc(O)c1C(=O)/C=C/c1ccccc1 [Cardamonin]
56.9 ± 23.4	O=C1c2c(O)cc(O)cc2O[C@H](c2cc(O)c(O)c(O)c2)[C@H]1O [Dihydromyricetin]
37.7 ± 1	O=c1c(O)c(-c2ccc(O)c(O)c2)oc2cc(O)ccc12 [Fisetin]
63.6 ± 5.9	O=c1c(O)c(-c2ccccc2)oc2cc(O)cc(O)c12 [Galangin]
5.2 ± 26.9	COc1ccc([C@@H]2CC(=O)c3c(O)cc(O)cc3O2)cc1O [Hesperetin]
42.8 ± 1	O=c1c(O)c(-c2ccc(O)cc2)oc2cc(O)cc(O)c12 [Kaempferol]
41.5 ± 3.4	O=c1c(O)c(-c2ccc(O)cc2O)oc2cc(O)cc(O)c12 [Morin]
43.2 ± 26	O=C1c2c(O)cc(O)cc2O[C@H](c2ccc(O)c(O)c2)[C@H]1O [Taxifolin]
19.7 ± 13.6	COc1cc(O)c(CC=C(C)C)c(O)c1C(=O)/C=C/c1ccc(O)cc1 [Xanthohumol]

Compound	remaining activity at 100 µM [%]
O=c1c(O)c(-c2ccccc2)oc2ccccc12 [3-Hydroxyflavone]	91.7 ± 1.1
Oc1cc(O)c2c(c1)O[C@H](c1cc(O)c(O)c(O)c1)[C@@H](O)C2 [(+)-Gallocatechin]	87.6 ± 27.6
O=C(O[C@@H]1Cc2c(O)cc(O)cc2O[C@@H]1c1cc(O)c(O)c(O)c1)c1cc(O)c(O)c(O)c1 [(−)-Epigallocatechin gallate]	37.5 ± 7
Oc1cc(O)c2c(c1)O[C@H](c1cc(O)c(O)c(O)c1)[C@H](O)C2 [(−)-Epigallocatechin]	83.6 ± 29
O=C(O[C@@H]1Cc2c(O)cc(O)cc2O[C@H]1c1cc(O)c(O)c(O)c1)c1cc(O)c(O)c(O)c1 [(−)-Gallocatechin gallate]	24 ± 2.5
O=c1c(O)c(-c2ccc(O)c(O)c2)oc2c(O)c(O)cc(O)c12 [Gossypetin]	46 ± 8.4
O=C1C[C@@H](c2ccc(O)cc2)Oc2cc(O)cc(O)c21 [Naringenin]	38.4 ± 31.6
O=c1c(O)c(-c2ccc(O)c(O)c2)oc2cc(O)cc(O)c12 [Quercetin]	34.6 ± 18.3

Source: article PMC7468911 (Nutrients, 2020)
